In PubChem BioAssay (NCI):
Several values for one entry are separate records, joined by “and”; a condition that tells them apart may be missing. Identical values can stand only once.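 Each compound was tested at five concentrations against cells in 96-well plates for 48 hours. GI50: concentration for 50% inhibition of growth. Definition used: TGI = concentration required for complete inhibition of growth.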

Tests used:
Experiment in all cases: growth of human tumour cells (NCI), 48 h
HT29 colon = system: HT29 colon
NCI-H522 lung = system: NCI-H522 lung
SW-620 colon = system: SW-620 colon
CAKI-1 renal = system: CAKI-1 renal
KM20L2 colon = system: KM20L2 colon
U251 CNS = system: U251 CNS
RXF 393 renal = system: RXF 393 renal
M14 melanoma = system: M14 melanoma
HL-60(TB) leukemia = system: HL-60(TB) leukemia
SK-OV-3 ovarian = system: SK-OV-3 ovarian
HOP-62 NSCLC = system: HOP-62 NSCLC
A549 NSCLC = system: A549 NSCLC
HCT-116 colon = system: HCT-116 colon
MCF7 breast = system: MCF7 breast
DU-145 prostate = system: DU-145 prostate
T-47D breast = system: T-47D breast

Compound | TGI (HT29 colon) | TGI (NCI-H522 lung) | TGI (SW-620 colon) | TGI (CAKI-1 renal) | TGI (KM20L2 colon) | TGI (U251 CNS) | TGI (RXF 393 renal) | TGI (M14 melanoma) | TGI (HL-60(TB) leukemia) | TGI (SK-OV-3 ovarian) | TGI (HOP-62 NSCLC) | TGI (A549 NSCLC) | TGI (HCT-116 colon) | TGI (MCF7 breast) | GI50 (CAKI-1 renal) | GI50 (HOP-62 NSCLC) | GI50 (A549 NSCLC) | TGI (DU-145 prostate) | TGI (T-47D breast)
FC(F)(F)C1(C(F)(F)F)O[SiH]2(OC(C(F)(F)F)(C(F)(F)F)c3ccccc32)c2ccccc21 | 23.2 µM | 42 µM | 45.4 µM | 87.1 µM | 18.4 µM | 19.6 µM | 31.2 µM | 29.4 µM |  |  |  |  |  |  |  |  |  |  | 
C=CCCCCCC(O)C(O)C/C=C\C/C=C\CC (stereo not drawn) | > 18.8 µM | > 18.8 µM | > 18.8 µM | > 18.8 µM | > 18.8 µM | > 18.8 µM | > 18.8 µM | > 18.8 µM | > 18.8 µM | > 18.8 µM | > 18.8 µM | > 18.8 µM | > 18.8 µM |  |  |  |  |  | 
Nc1nc(Cl)cc(NCCCCCCCCCCCCNc2cc(Cl)nc(N)n2)n1 | > 100 µM |  | > 100 µM |  | > 100 µM | 20.1 µM | 44.5 µM | > 100 µM | > 100 µM | > 100 µM | 35.2 µM | > 100 µM | > 100 µM |  |  |  |  |  | 
CCOC(=O)/C=C/c1c[nH]c(C(=O)OCC)c1 | > 100 µM | > 100 µM | > 100 µM | > 100 µM | > 100 µM | > 100 µM | > 100 µM |  | > 100 µM | > 100 µM | > 100 µM | > 100 µM | > 100 µM | > 100 µM |  |  |  |  | 
Cc1ccc(S(=O)(=O)c2c3[nH]c4ccccc4nc3n3c2nc2ccccc23)cc1 |  | > 100 µM | > 100 µM | > 100 µM | > 100 µM | > 100 µM |  | > 100 µM | > 100 µM | > 100 µM | > 100 µM | > 100 µM | > 100 µM |  |  |  |  |  | 
COc1cc(C2c3cc4c(cc3[C@@H](NCCCN(C)C)[C@H]3COC(=O)C23)OCO4)cc(OC)c1O (stereo partly drawn) | > 37.5 µM and 6.09 µM | 1.65 µM and 2.47 µM | 1.18 µM and 4.27 µM | 0.351 µM and 0.952 µM | 2.44 µM and 4.44 µM | 2.15 µM and 1.9 µM |  |  | 0.231 µM and 0.245 µM | 1.26 µM and 1.2 µM | 0.297 µM and 0.925 µM | 0.712 µM | 6.14 µM |  | 59.9 nM and 227 nM | 93.3 nM and 271 nM | 30 nM |  | 
ClCc1ccc2ccc3ccc(CCl)nc3c2n1 | 6.28 µM | 3.44 µM | 7.79 µM |  | 12 µM | 3.78 µM | 3.17 µM |  | 4.43 µM |  | 15.4 µM | > 42.2 µM | 3.44 µM | 2.74 µM |  |  |  |  | 
CCN(CC)c1cccc2c1C1(O)CCC3(CC21)OCCCCO3 (stereo not drawn) | > 100 µM | > 100 µM | > 100 µM | > 100 µM | > 100 µM | > 100 µM | 53.6 µM | > 100 µM | > 100 µM | > 100 µM | > 100 µM | > 100 µM | > 100 µM |  |  |  |  |  | 
CCCCCCCSCC1C(=O)C23C(O)C1CCC2C12COC3(O)C(O)C1C(C)(C)CCC2O (stereo not drawn) | 30 µM | 3.04 µM | 3.23 µM | 15.7 µM | 25 µM | 22.7 µM | 27.1 µM | 24.7 µM | 16.3 µM | 32 µM | 37.9 µM | 39.3 µM | 18.7 µM |  |  |  |  |  | 
CC[C@](C)(O)C(=O)O[C@H]1C(=O)O[C@@H]2C[C@H]3C(C)=C[C@H](O)[C@@H](O)[C@]3(C)[C@H]3[C@@]4(O)OC[C@]32[C@@H]1[C@@H](C)[C@H]4O | 120 µM | 9.8 µM | 61.7 µM | 116 µM | 189 µM | 70.5 µM | 2.43 µM |  | 43.1 µM | 263 µM | 157 µM | 292 µM | 89.2 µM | 39 µM |  |  |  |  | 
N#CC(NNC(=O)c1ccccc1O)c1ccccc1 (stereo not drawn) | > 100 µM | 52.2 µM | > 100 µM | > 100 µM | > 100 µM | > 100 µM | 61.8 µM | > 100 µM | 52.5 µM | > 100 µM | > 100 µM | > 100 µM | > 100 µM |  |  |  |  |  | 
COc1ccc(CCc2ccccc2CC(=O)O)cc1 | > 100 µM | > 100 µM | > 100 µM | > 100 µM | > 100 µM | > 100 µM | > 100 µM | > 100 µM | > 100 µM | > 100 µM |  | > 100 µM | > 100 µM |  |  |  |  |  | 
CC(=O)c1cccc(NC(=O)C(=O)C(C(=O)c2ccccc2F)C2OC(=O)c3ccccc32)c1 (stereo not drawn) | > 100 µM | 56.7 µM | > 100 µM | > 100 µM | > 100 µM | 53.2 µM | 70 µM | > 100 µM | 64.8 µM | > 100 µM | > 100 µM | > 100 µM | 88.6 µM |  |  |  |  |  | 
Cc1cc(N)ccc1C=O | > 100 µM | > 100 µM | > 100 µM | > 100 µM |  | > 100 µM | > 100 µM | > 100 µM | > 100 µM | > 100 µM | > 100 µM | > 100 µM | > 100 µM | > 100 µM |  |  |  | > 100 µM | > 100 µM
